# From US20170368018A1, “USE OF ELLAGIC ACID DIHYDRATE IN PHARMACEUTICAL FORMULATIONS TO REGULATE BLOOD GLUCOSE LEVELS” (HALO LIFE SCIENCE, LLC, priority 2014, published 2017)
# Entries after “also recorded” stand apart in the source; their conditions may differ.
# Assays:
# glucose oxidase reaction = glucose oxidase reaction (Aspergillus niger, UniProt P13006); assay: Direct interaction with glucose, glucose oxidase based glucometer on serum; format: biochemical; conditions: incubated with serum at room temperature for five minutes or overnight at 37° C.
# Sequence of glucose oxidase reaction (P13006 17-605): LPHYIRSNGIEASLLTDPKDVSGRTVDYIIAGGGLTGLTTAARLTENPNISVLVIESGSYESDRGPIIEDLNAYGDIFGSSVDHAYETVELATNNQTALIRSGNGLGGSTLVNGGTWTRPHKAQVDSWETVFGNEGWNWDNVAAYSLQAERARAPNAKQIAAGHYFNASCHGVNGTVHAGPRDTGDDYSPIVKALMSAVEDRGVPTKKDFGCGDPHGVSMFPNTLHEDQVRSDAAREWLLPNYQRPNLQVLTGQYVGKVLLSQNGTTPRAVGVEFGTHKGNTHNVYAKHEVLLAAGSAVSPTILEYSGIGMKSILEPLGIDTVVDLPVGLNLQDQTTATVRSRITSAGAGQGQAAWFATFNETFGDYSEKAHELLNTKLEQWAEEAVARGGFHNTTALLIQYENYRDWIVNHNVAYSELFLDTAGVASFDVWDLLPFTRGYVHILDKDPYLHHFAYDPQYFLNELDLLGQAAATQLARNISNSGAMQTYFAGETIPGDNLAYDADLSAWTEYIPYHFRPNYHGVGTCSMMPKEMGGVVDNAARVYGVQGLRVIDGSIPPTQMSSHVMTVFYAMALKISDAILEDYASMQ
# Method: Ellagic acid dihydrate was analyzed for direct interaction with glucose. A glucose oxidase based glucometer was used to measure serum glucose. Ellagic acid dihydrate was incubated with serum at room temperature for five minutes or overnight at 37° C. Upon testing the mixture, no inhibition of the glucose oxidase reaction was observed. Ellagic acid dihydrate is not believed to directly interact with glucose.
# [1] = test system: mouse embryonic fibroblasts (MEFs); assay: Cytotoxicity: cell membrane integrity by propidium iodide (PI) labeling; format: cell-based; conditions: 48 hr exposure
# Method: (§1) The cytotoxicity of ellagic acid dihydrate in in vitro cell culture was evaluated. Cellular assays were performed using mouse embryonic fibroblasts (MEFs). Cells were unexposed (No Treatment) or exposed to varying concentrations of ellagic acid dihydrate (4 μM-0.04 nM) or vehicle (0.1% DMSO) for 48 hrs. All assays were run in triplicate.
# Loss of cellular membrane integrity is an indication of cell death. Cell membrane integrity/cell toxicity was determined by adding propidium iodide (PI) to suspended cells prior to flow cytometry. PI is a red-fluorescent DNA stain that is excluded by live-healthy cells but will enter dead cells in a population. The presence of PI in 500-1000 cells per treatment group was determined by flow cytometry (Accuri C6, BD Biosciences). Cell with disrupted membranes, associated with cell death, are expected to be positively labeled with PI.
# MEF cells [2] = assay: Glucose uptake, 2-NBDG labeling, flow cytometry, MEFs; format: cell-based, mouse
# Method: Cellular assays were performed using mouse myoblast C2C12 cells and MEF cells. […] Increased glucose uptake was indicated as increasing signal of 2-NBDG ([…]) in cells. Glucose uptake assays were carried out in a final incubation volume of 50 μl consisting of, 2-NBDG), (100 μM) in 1× Phosphate Buffered Saline w/Ca+, Mg+ (PBS++). The same buffer was used for washing cells. Insulin was used as a positive control. All testing compounds were prepared in […] and diluted 1:100 for a final concentration of 0.1% DMSO (vehicle). Cells were culture to 70-90% confluence and then washed twice with PBS++. Cells were incubated for 30 minutes at 37° C. in PBS++. Nuclear stain, HCS CellMask stain (blue, Invitrogen), and/or testing compounds (ellagic acid dihydrate, insulin, or vehicle) were added. Cells were incubated for 30 min at 37° C. Cells were washed twice with PBS++and incubated with 2-NBDG for 10 minutes. Cells were washed thrice with PBS++and then imaged in PBS++. Alternatively, the final PBS wash was removed and cells were incubated with Accutase (Invitrogen) for 10 min at 37° C., neutralized with 10% FBS in 1× PBS, and analyzed by flow cytometry. An additional experiment was performed to measure glucose uptake in C2C12 cells exposed to metformin, insulin and ellagic acid dihydrate 2 (batch 2). FIG. 5C. Glucose uptake in ellagic acid dihydrate treated cell culture was measured and compared to glucose uptake under insulin or ellagic acid treatment. […] Flow cytometry results were run in triplicate with 1000 cells per batch.
# [3] = test system: mouse embryonic fibroblasts (MEFs); assay: Cytotoxicity: cell proliferation by automated cell counting (flow cytometry); format: cell-based; conditions: 48 hr exposure, 4 μM-0.04 nM, changes not statistically significant (P>0.05)
# Method: as §1
# Cell proliferation rates were determined using automated cell counting of cells after 48 hr exposure to ellagic acid dihydrate in complete medium (DMEM w/10% FBS). Cell were then washed thrice with 1× PBS and incubated with Accutase (Invitrogen) for 10 min at 37° C., neutralized with 10% FBS in 1× PBS, and analyzed by flow cytometry. Cell concentrations were determined by cell counting (500-1000) on a flow cytometer (Accuri C6, BD Biosciences). The concentration of cells reflects the impact of ellagic acid dihydrate on the cell population numbers (cell death and cell proliferation).
# [4] = test system: AKT / Phos AKT in C2C12 cells; assay: AKT:phos AKT ratio by immunocytochemistry, high-content imaging; format: cell-based, mouse; conditions: C2C12, serum starved 1 hr, treated 30 minutes, 4 nM-4 μM, FIG. 8
# Method: Stimulation of AKT pathways and MAPK pathways in ellagic acid dihydrate, metformin, and insulin treated cell cultures was performed. Insulin stimulates glucose uptake into cells by increasing GLUT4 activation, and AKT, specifically phos-AKT, signaling alters GLUT4 translocation. […] Cellular assays were performed using mouse myoblast C2C12 cells. […] Serum starved cells (1 hr) were treated for 30 minutes with each of the tested compounds.
# MEF cells [5] = assay: Glucose uptake, 2-NBDG labeling, high-content imaging (Operetta), MEFs; format: cell-based, mouse
# Method: Increased glucose uptake was indicated as increasing signal of 2-NBDG ([…]) in cells. Glucose uptake assays were carried out in a final incubation volume of 50 μl consisting of, 2-NBDG), (100 μM) in 1× Phosphate Buffered Saline w/Ca+, Mg+ (PBS++). The same buffer was used for washing cells. Insulin was used as a positive control. All testing compounds were prepared in 10% DMSO and diluted 1:100 for a final concentration of 0.1% DMSO (vehicle). Cells were culture to 70-90% confluence and then washed twice with PBS++. Cells were incubated for 30 minutes at 37° C. in PBS++. Nuclear stain, HCS CellMask stain (blue, Invitrogen), and/or testing compounds (ellagic acid dihydrate, insulin, or vehicle) were added. Cells were incubated for 30 min at 37° C. Cells were washed twice with PBS++and incubated with 2-NBDG for 10 minutes. Cells were washed thrice with PBS++and then imaged in PBS++. Alternatively, the final PBS wash was removed and cells were incubated with Accutase (Invitrogen) for 10 min at 37° C., neutralized with 10% FBS in 1× PBS, and analyzed by flow cytometry. An additional experiment was performed to measure glucose uptake in C2C12 cells exposed to metformin, insulin and ellagic acid dihydrate 2 (batch 2). FIG. 5C. Glucose uptake in ellagic acid dihydrate treated cell culture was measured and compared to glucose uptake under insulin or ellagic acid treatment. […] Flow cytometry results were run in triplicate with 1000 cells per batch.
structure (smiles),measurement,setting,value
O.O.O=c1oc2c(O)c(O)cc3c(=O)oc4c(O)c(O)cc1c4c23 [ellagic acid dihydrate],inhibition of the glucose oxidase reaction,glucose oxidase reaction,no inhibition
same,Cell membrane integrity relative to the vehicle or untreated cells,"[1]; 400 nM-0.4 nM, not statistically significant (P>0.05)",increased
same,Cell membrane integrity (% cells negative for PI),[1]; 4000 nM,95.40%
same,increased glucose uptake relative to vehicle treated cells,"MEF cells [2]; 400 nM exposure, fibroblasts, FIG. 4B",47%
same,dose effect for increasing glucose uptake,"MEF cells [2]; MEFs, flow cytometry, 4 μM-0.04 nM",showed a dose effect
same,increase in glucose uptake compared with ellagic acid or insulin treatment,"MEF cells [2]; MEFs, flow cytometry, Example 5, FIG. 6",significantly greater increase in glucose uptake
same,glucose uptake (2-NBDG signal) relative to vehicle,"MEF cells [2]; MEFs, flow cytometry, FIG. 4A",significantly greater than vehicle treated
same,glucose uptake relative to insulin,"MEF cells [2]; fibroblasts, at most concentrations tested, significant at 4 nM-4 μM, dihydrate",significantly more glucose uptake relative to insulin; also recorded: exceeded the uptake induced by insulin
same,glucose uptake per unit dose,"MEF cells [2]; in vitro conditions, summary statement",increase in glucose uptake per unit dose
same,Cell proliferation,[3],trend toward increasing cell proliferation
same,AKT:Phos AKT ratio (log2 scale) relative to vehicle treated cells,[4],increase in AKT relative to Phos-AKT signal
same,dose effect for increasing glucose uptake,MEF cells [5],showed a dose effect
same,glucose uptake (signal of 2-NBDG) in comparison to vehicle,MEF cells [5],showed an increase in glucose uptake
same,glucose uptake (2-NBDG signal) relative to vehicle treated or Insulin treated cells,MEF cells [5]; data not shown,significantly greater
